Test results reported in patent US11613785B2, “Predictive and diagnostic methods for prostate cancer” (OnkosXcel Therapeutics, LLC, priority 2017, dated 2023).

How the values were obtained:
[1] = test system: TRAMP mouse model of NEPC; assay: Efficacy study (tumor volume) in transgenic mouse model of NEPC (TRAMP mouse); format: in vivo; details: TRAMP mice; talabostat mesylate 20 μg qd p.o.; PD-1 antagonist 10 mg/kg i.p. twice weekly
Excerpt: Efficacy Study of Talabostat Mesylate and PD-1 Antagonist in Transgenic Mouse Model of NEPC (TRAMP Mouse)
Reagents and Antibodies: RPMI-1640 medium (Catalog No.: A1049101), Glutamax (Catalog No.: 35050061), Trypsin-EDTA (0.25%) (Catalog No.: 25200-056), Penicillin-Streptomycin (Catalog No.: 15070-063), HBSS (Catalog No.: 14175-095) are procured form Gibco, while Fetal bovine serum (FBS) (Catalog No.: 004-001-1A) is purchased from Biological Industries. The anti-PD-1 antibody (PD-1 antagonist (clone: RMPI-14, Catalog no: BE0146)) is supplied by Bioxcell at 6.61 mg/ml. Stock solutions of PD-1 antagonist, at 1 mg/ml concentrations are prepared and kept at 4° C. prior to use. Dosing solutions of PD-1 antagonist are prepared freshly at a concentration of 1 mg/ml, before every administration in sterile phosphate buffered saline (PBS), pH 7.0 and administered a dose of 10 mg/kg, intraperitoneally (i.p) into, 20 g mouse. […]
Tumor size and body weights are measured twice weekly. Tumor volumes are measured twice per week in two dimensions using a caliper, and the volume are expressed in mm^3 using the formula: V=0.5 a×b^2 where a and b are the length and width of the tumor, respectively. […] Tumor volume is expressed in mm^3, is measured with caliper on day 5, 8, 12, 15, 19, 22, 26 and day 29.

[2] = test system: NK cells, macrophages, FoxP3+ Tregs in tumor; assay: Immunophenotyping of tumor samples by RT-PCR; format: in vivo; details: TRAMP mouse tumor samples
Procedure: Immunophenotyping of tumor samples by RT-PCR: Tumor RNA samples are extracted from the frozen tumor tissues using the Trizol reagent. Reverse transcription is carried out using a kit from Takara (Catalog No. #RR047A). Quantitative PCR are conducted using a master mix from Invitrogen (Catalog No. #4309155) on an ABI 7900HT Fast Real-Time PCR System. The results are analyzed using a Delta Ct Method. The marker gene and respective oligo sequence used in this study are from the NIH q-RT-PCR primer database (mouseqprimerdepot.nih.gov) these are associated with the Ncrl and Pfrl (NK cell receptor) a marker characteristic to the NK cell and their activation respectively, while the Gmbz is meant for quantifying the release of granzyme B and the FoxP3 associated with CD25+CD4+ Tregs. Statistical Analysis: A one-way ANOVA is also used to assess the statistical difference between the vehicle group and all other groups in the blood sample immune-phenotyping and q-RT-PCR assay as well as on the microarray samples on the indicated day. All the data is analyzed using GraphPad Prism 5. p<0.05 is statistically significant (*, p<0.05; **, p<0.01; ***, p<0.001).

talabostat mesylate
tumor reduction (tumor volume) [1]: significant effect
FoxP3+ Treg population (relative mRNA expression of FoxP3) in tumor samples [2]: reduction in the FoxP3 population
